What was measured:
Assay in all cases: KINOMEscan
Format in all cases: binding
[1] = target: T1, EPHB2 (Homo sapiens, UniProt P29323)
T1 construct: purchased Eurofins DiscoverX KINOMEscan
Outline: (§1)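 Active-site competition format. Unbound kinase fraction measured by affinity-ligand capture plus qPCR after 1 h at RT. Kd from 12-point half-log titration, maximum 33 μM.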

[2] = target: T2, EGFR (L858R, T790M) (Homo sapiens, UniProt P00533, L858R/T790M)
T2 construct: purchased Eurofins DiscoverX KINOMEscan
Outline: as §1

[3] = target: T3, PIK3CA (E542K) (Homo sapiens, UniProt P42336, E542K)
T3 construct: purchased Eurofins DiscoverX KINOMEscan
Outline: as §1

[4] = target: T4, VPS34 (Homo sapiens, UniProt Q8NEB9)
T4 construct: purchased Eurofins DiscoverX KINOMEscan
Outline: (§2)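 Competition binding run for 1 h at room temperature; kinase left unbound by compound was captured on an immobilized affinity ligand and quantified by qPCR. Kd was taken from a 12-point half-log dilution series with a 33 μM top concentration.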

[5] = target: T5, RPS6KA5 (Kin. Dom.1-N-term.) (Homo sapiens, UniProt O75582)
T5 construct: RPS6KA5 (Kin. Dom.1-N-term.); purchased Eurofins DiscoverX KINOMEscan
Outline: as §2

[6] = target: T6, MAP3K1 (Homo sapiens, UniProt Q13233)
T6 construct: purchased Eurofins DiscoverX KINOMEscan
Outline: as §2

[7] = target: T7, LRRK2 (G2019S) (Homo sapiens, UniProt Q5S007, G2019S)
T7 construct: purchased Eurofins DiscoverX KINOMEscan
Outline: as §2

[8] = target: T8, CTK (Homo sapiens, UniProt P42679)
T8 construct: purchased Eurofins DiscoverX KINOMEscan
Outline: as §2

[9] = target: T9, MKNK2 (Homo sapiens, UniProt Q9HBH9)
T9 construct: purchased Eurofins DiscoverX KINOMEscan
Outline: as §1

[10] = target: T10, EPHA5 (Homo sapiens, UniProt P54756)
T10 construct: purchased Eurofins DiscoverX KINOMEscan
Outline: as §1

[11] = target: T11, AKT1 (Homo sapiens, UniProt P31749)
T11 construct: purchased Eurofins DiscoverX KINOMEscan
Outline: as §1

[12] = target: T12, CDK5 (Homo sapiens, UniProt Q00535)
T12 construct: purchased Eurofins DiscoverX KINOMEscan
Outline: as §2

[13] = target: T13, ERBB2 (Homo sapiens, UniProt P04626)
T13 construct: purchased Eurofins DiscoverX KINOMEscan
Outline: as §2

[14] = target: T14, PRKCE (Homo sapiens, UniProt Q02156)
T14 construct: purchased Eurofins DiscoverX KINOMEscan
Outline: as §1

[15] = target: T15, FAK (Homo sapiens, UniProt Q05397)
T15 construct: purchased Eurofins DiscoverX KINOMEscan
Outline: as §2

[16] = target: T16, RSK3 (Kin. Dom.1-N-term.) (Homo sapiens, UniProt Q15349)
T16 construct: RSK3 (Kin. Dom.1-N-term.); purchased Eurofins DiscoverX KINOMEscan
Outline: as §2

[17] = target: T17, MKNK1 (Homo sapiens, UniProt Q9BUB5)
T17 construct: purchased Eurofins DiscoverX KINOMEscan
Outline: as §2

[18] = target: T18, FYN (Homo sapiens, UniProt P06241)
T18 construct: purchased Eurofins DiscoverX KINOMEscan
Outline: as §2

[19] = target: T19, BRSK2 (Homo sapiens, UniProt Q8IWQ3)
T19 construct: purchased Eurofins DiscoverX KINOMEscan
Outline: as §2

[20] = target: T20, PIK3CA (Homo sapiens, UniProt P42336)
T20 construct: purchased Eurofins DiscoverX KINOMEscan
Outline: as §2

[21] = target: T21, BMX (Homo sapiens, UniProt P51813)
T21 construct: purchased Eurofins DiscoverX KINOMEscan
Outline: as §2

[22] = target: T22, VEGFR2 (Homo sapiens, UniProt P35968)
T22 construct: purchased Eurofins DiscoverX KINOMEscan
Outline: as §1

[23] = target: T23, ABL1 (T315I)-P (Homo sapiens, UniProt P00519, T315I)
T23 construct: purchased Eurofins DiscoverX KINOMEscan
Outline: as §2

[24] = target: T24, CDK9 (Homo sapiens, UniProt P50750)
T24 construct: purchased Eurofins DiscoverX KINOMEscan
Outline: as §2

[25] = target: T25, ASK1 (Homo sapiens, UniProt Q99683)
T25 construct: purchased Eurofins DiscoverX KINOMEscan
Outline: as §1

[26] = target: T26, p38-α (Homo sapiens, UniProt Q16539)
T26 construct: purchased Eurofins DiscoverX KINOMEscan
Outline: as §2

[27] = target: T27, EPHA3 (Homo sapiens, UniProt P29320)
T27 construct: purchased Eurofins DiscoverX KINOMEscan
Outline: as §2

[28] = target: T28, RIOK3 (Homo sapiens, UniProt O14730)
T28 construct: purchased Eurofins DiscoverX KINOMEscan
Outline: as §1

[29] = target: T29, MAP3K3 (Homo sapiens, UniProt Q99759)
T29 construct: purchased Eurofins DiscoverX KINOMEscan
Outline: as §2

[30] = target: T30, MLCK (Homo sapiens, UniProt Q32MK0)
T30 construct: purchased Eurofins DiscoverX KINOMEscan
Outline: as §2

[31] = target: T31, ABL1 (F317L)-P (Homo sapiens, UniProt P00519, F317L)
T31 construct: purchased Eurofins DiscoverX KINOMEscan
Outline: as §2

[32] = target: T32, ERBB3 (Homo sapiens, UniProt P21860)
T32 construct: purchased Eurofins DiscoverX KINOMEscan
Outline: as §2

[33] = target: T33, STK33 (Homo sapiens, UniProt Q9BYT3)
T33 construct: purchased Eurofins DiscoverX KINOMEscan
Outline: as §2

[34] = target: T34, PIK3C2G (Homo sapiens, UniProt O75747)
T34 construct: purchased Eurofins DiscoverX KINOMEscan
Outline: as §2

[35] = target: T35, TRKA (Homo sapiens, UniProt P04629)
T35 construct: purchased Eurofins DiscoverX KINOMEscan
Outline: as §1

[36] = target: T36, GSK3B (Homo sapiens, UniProt P49841)
T36 construct: purchased Eurofins DiscoverX KINOMEscan
Outline: as §1

[37] = target: T37, CDKL5 (Homo sapiens, UniProt O76039)
T37 construct: purchased Eurofins DiscoverX KINOMEscan
Outline: as §2

[38] = target: T38, PKAC-α (Homo sapiens, UniProt P17612)
T38 construct: purchased Eurofins DiscoverX KINOMEscan
Outline: as §2

T20 sequence (P42336 whole entry): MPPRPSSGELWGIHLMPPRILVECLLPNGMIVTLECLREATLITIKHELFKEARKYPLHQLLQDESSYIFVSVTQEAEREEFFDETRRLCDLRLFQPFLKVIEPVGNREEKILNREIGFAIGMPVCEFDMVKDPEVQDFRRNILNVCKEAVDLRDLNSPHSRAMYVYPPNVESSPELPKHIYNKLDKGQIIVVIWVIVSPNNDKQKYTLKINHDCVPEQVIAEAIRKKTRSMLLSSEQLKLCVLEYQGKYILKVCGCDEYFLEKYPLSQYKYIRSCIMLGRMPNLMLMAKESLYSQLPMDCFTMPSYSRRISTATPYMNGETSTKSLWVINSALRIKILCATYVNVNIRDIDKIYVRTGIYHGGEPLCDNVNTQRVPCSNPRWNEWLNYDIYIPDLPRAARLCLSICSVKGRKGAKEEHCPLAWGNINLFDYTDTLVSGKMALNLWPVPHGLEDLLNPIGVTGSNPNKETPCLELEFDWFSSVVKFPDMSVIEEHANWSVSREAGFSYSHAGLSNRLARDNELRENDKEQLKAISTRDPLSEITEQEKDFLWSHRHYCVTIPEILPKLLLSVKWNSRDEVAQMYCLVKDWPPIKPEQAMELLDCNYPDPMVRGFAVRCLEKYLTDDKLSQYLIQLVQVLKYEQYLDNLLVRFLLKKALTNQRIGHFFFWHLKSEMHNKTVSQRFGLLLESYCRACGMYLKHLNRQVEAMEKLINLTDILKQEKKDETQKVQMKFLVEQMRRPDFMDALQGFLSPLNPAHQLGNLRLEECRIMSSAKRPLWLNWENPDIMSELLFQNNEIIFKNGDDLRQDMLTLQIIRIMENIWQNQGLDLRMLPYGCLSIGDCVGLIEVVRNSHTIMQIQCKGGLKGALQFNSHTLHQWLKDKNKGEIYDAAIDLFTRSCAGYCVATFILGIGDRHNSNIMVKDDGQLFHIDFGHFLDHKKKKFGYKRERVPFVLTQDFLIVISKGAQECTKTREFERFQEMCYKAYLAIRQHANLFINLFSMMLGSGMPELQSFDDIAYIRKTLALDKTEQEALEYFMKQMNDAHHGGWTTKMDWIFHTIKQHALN
T18 sequence (P06241 whole entry): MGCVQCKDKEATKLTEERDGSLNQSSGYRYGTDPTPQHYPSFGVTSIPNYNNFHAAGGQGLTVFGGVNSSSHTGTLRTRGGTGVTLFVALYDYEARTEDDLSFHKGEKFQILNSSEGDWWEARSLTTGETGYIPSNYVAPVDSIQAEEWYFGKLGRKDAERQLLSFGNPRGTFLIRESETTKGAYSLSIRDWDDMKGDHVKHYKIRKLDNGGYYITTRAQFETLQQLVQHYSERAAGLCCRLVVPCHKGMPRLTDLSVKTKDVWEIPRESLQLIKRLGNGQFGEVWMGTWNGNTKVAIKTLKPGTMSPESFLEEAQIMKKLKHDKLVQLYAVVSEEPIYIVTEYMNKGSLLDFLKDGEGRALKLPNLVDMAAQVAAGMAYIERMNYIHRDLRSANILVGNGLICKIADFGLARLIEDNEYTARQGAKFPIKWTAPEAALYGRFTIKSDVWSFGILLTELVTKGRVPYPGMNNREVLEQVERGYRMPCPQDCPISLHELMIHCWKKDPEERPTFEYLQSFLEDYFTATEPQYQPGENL
T17 sequence (Q9BUB5 whole entry): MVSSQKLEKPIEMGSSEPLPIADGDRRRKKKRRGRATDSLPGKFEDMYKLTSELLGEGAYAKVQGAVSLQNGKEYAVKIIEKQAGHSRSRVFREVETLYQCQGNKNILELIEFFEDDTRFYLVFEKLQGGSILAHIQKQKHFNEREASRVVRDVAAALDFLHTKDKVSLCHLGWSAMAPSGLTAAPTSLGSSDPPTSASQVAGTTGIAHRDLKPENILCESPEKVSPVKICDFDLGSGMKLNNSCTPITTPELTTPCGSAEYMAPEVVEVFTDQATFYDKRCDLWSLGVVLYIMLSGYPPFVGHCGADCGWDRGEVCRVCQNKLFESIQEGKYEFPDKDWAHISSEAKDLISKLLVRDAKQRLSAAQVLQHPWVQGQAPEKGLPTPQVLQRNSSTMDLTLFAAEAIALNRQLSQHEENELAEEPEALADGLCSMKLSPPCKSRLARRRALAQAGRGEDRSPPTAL
T21 sequence (P51813 whole entry): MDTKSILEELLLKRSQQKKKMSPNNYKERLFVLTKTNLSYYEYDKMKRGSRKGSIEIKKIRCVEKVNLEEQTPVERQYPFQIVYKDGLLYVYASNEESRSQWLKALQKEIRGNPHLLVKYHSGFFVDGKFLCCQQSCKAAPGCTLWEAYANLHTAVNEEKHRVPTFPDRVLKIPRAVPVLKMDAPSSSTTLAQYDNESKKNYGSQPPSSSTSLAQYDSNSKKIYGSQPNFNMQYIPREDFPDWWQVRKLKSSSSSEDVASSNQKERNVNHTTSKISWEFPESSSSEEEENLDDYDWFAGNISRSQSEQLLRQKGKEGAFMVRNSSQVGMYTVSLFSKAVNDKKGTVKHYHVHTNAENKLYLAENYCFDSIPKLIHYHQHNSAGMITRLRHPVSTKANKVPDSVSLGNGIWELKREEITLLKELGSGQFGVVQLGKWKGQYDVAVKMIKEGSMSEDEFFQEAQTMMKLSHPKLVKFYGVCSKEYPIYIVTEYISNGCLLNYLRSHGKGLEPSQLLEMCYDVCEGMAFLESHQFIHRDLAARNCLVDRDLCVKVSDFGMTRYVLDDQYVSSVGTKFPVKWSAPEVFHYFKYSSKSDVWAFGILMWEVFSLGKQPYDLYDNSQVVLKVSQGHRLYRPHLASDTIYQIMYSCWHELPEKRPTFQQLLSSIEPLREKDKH
T26 sequence (Q16539 whole entry): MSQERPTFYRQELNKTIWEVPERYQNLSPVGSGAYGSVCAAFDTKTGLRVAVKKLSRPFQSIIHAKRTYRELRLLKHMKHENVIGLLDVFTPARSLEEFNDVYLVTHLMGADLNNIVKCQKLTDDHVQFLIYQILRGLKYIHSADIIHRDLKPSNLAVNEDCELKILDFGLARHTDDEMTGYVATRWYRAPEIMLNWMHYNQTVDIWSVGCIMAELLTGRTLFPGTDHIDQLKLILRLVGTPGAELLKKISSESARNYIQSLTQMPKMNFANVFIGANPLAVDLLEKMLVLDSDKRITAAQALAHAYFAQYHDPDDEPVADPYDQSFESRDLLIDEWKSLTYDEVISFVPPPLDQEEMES
T16 sequence (Q15349 1-388 limits assumed): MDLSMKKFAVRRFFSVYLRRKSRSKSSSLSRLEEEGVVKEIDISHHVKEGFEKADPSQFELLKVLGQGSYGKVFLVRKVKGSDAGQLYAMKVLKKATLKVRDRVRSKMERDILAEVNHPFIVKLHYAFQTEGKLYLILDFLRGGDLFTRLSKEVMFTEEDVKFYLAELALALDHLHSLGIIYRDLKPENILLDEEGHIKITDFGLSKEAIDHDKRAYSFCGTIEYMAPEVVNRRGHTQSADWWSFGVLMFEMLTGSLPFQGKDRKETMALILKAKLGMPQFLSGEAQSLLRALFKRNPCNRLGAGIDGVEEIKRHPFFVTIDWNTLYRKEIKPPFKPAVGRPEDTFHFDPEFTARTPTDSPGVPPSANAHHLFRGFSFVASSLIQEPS
T9 sequence (Q9HBH9 whole entry): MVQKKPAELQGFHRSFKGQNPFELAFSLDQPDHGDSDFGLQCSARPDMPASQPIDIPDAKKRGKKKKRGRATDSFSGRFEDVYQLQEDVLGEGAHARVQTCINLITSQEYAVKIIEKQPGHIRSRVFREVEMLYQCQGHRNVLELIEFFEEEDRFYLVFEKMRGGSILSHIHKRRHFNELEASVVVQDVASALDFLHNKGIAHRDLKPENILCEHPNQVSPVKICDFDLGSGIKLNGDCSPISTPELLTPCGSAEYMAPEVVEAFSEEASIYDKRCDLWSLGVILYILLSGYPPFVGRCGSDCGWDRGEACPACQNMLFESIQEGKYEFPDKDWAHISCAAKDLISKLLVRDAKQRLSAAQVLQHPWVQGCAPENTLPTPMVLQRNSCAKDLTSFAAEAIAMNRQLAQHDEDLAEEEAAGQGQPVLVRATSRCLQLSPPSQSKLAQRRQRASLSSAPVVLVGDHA
T37 sequence (O76039 whole entry): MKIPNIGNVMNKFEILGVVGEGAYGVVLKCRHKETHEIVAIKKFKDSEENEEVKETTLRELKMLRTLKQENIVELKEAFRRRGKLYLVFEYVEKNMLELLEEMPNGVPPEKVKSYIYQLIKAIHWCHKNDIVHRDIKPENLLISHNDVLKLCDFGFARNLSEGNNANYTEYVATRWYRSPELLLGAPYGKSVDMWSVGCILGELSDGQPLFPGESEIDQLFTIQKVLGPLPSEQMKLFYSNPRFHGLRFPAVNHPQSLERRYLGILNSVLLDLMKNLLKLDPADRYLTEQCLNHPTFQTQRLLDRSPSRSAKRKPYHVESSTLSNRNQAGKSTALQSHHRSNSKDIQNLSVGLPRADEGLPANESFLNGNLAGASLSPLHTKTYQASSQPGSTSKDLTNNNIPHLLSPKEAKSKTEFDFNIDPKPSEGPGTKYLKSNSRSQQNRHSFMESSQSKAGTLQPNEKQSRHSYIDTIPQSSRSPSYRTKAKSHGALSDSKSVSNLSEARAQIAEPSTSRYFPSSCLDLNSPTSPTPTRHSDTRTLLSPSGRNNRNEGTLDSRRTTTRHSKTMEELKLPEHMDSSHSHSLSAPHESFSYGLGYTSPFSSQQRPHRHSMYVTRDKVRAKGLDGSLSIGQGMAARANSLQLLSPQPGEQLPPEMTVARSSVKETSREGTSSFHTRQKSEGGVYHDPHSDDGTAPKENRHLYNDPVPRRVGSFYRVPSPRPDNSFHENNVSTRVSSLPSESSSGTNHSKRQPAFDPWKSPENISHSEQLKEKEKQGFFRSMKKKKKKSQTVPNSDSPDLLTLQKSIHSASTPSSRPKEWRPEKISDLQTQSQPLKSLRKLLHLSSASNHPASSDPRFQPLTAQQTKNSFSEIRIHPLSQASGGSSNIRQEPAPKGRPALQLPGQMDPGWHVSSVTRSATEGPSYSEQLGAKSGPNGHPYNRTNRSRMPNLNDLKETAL
T3 sequence (P42336 whole entry E542K): as the sequence (P42336 whole entry) above, with E542K counted along it

O=C1Nc2c(cc([N+](=O)[O-])c3c2CCCC3)C1=NO [Compound 5d, 3-(Hydroxyimino)-5-nitro-1,3,6,7,8,9-hexahydro-2H-benzo[g]indol-2-one]
inhibition at 10 µM [1]: 11% | inhibition at 10 µM [2]: 2% | inhibition at 10 µM [3]: 43% | inhibition at 10 µM [4]: 27% | inhibition at 10 µM [5]: 4% | inhibition at 10 µM [6]: 6% | inhibition at 10 µM [7]: 89% | inhibition at 10 µM [8]: 0% | inhibition at 10 µM [9]: 93.2% | inhibition at 10 µM [10]: 9% | inhibition at 10 µM [11]: 10% | inhibition at 10 µM [12]: 1% | inhibition at 10 µM [13]: 29% | inhibition at 10 µM [14]: 61% | inhibition at 10 µM [15]: 19% | inhibition at 10 µM [16]: 2% | inhibition at 10 µM [17]: 72% | inhibition at 10 µM [18]: 0% | inhibition at 10 µM [19]: 31% | inhibition at 10 µM [20]: 0% | inhibition at 10 µM [21]: 13% | inhibition at 10 µM [22]: 39% | inhibition at 10 µM [23]: 17% | inhibition at 10 µM [24]: 0% | inhibition at 10 µM [25]: 50% | inhibition at 10 µM [26]: 0% | inhibition at 10 µM [27]: 45% | inhibition at 10 µM [28]: 19% | inhibition at 10 µM [29]: 68% | inhibition at 10 µM [30]: 11% | inhibition at 10 µM ([31]; first of two lines printed ABL1 (F317L)-P): 23% | inhibition at 10 µM ([31]; second of two lines printed ABL1 (F317L)-P): 20% | inhibition at 10 µM [32]: 0% | inhibition at 10 µM [33]: 62% | inhibition at 10 µM [34]: 43% | inhibition at 10 µM [35]: 0% | inhibition at 10 µM [36]: 29% | inhibition at 10 µM [37]: 0% | inhibition at 10 µM [38]: 0%
